Source: patent US6706663B2, “Herbicidal 3-heterocyclic substituted benzisothiazole and benzisoxazole compounds” (Wyeth, priority 2000, dated 2004)

Assays:
[1] = test system: CHEAL (Chenopodium album); assay: Postemergence herbicidal evaluation; format: in vivo, L.; details: postemergence
How it was run: (§1)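 Seedlings grown about two weeks in flats, sprayed, then kept under standard greenhouse care. Rated visually 4–5 weeks after treatment on a 0–9 scale (stand, vigour, malformation, size, chlorosis, overall appearance) relative to untreated control; repeat tests averaged.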

[2] = test system: CASOB (Cassia obtusifolia); assay: Postemergence herbicidal evaluation; format: in vivo, L.; details: postemergence
How it was run: as §1

[3] = test system: AMBEL (Ambrosia artemisifolia); assay: Postemergence herbicidal evaluation; format: in vivo, L.; details: postemergence
How it was run: as §1

[4] = test system: CHEAL (Chenopodium album); assay: Preemergence herbicidal evaluation; format: in vivo, L.; details: rated 4-5 weeks after treatment
How it was run: (§2)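 Seeds planted in potting soil cups and sprayed preemergence with aqueous acetone compound solution. Greenhouse-grown; rated 4–5 weeks after treatment on a 0-9 visual scale (stand, vigor, malformation, size, chlorosis, appearance) versus control.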

[5] = test system: CASOB (Cassia obtusifolia); assay: Preemergence herbicidal evaluation; format: in vivo, L.; details: rated 4-5 weeks after treatment
How it was run: as §2

[6] = test system: AMBEL (Ambrosia artemisifolia); assay: Preemergence herbicidal evaluation; format: in vivo, L.; details: rated 4-5 weeks after treatment
How it was run: as §2

[7] = test system: TRZAWR (Wheat, Winter, cv Riband); assay: Preemergence herbicidal evaluation; format: in vivo, Triticum aestivum; details: rated 4-5 weeks after treatment
How it was run: as §2

[8] = test system: ABUTH (Abutilon theophrasti); assay: Postemergence herbicidal evaluation; format: in vivo, Medic.; details: postemergence
How it was run: as §1

[9] = test system: ECHCG (Echinochloa crus-galli); assay: Postemergence herbicidal evaluation; format: in vivo, (L.) Beau; details: postemergence
How it was run: as §1

[10] = test system: SAGPY (Sagittaria pygmaea); assay: Flooded paddy, preemergence weed control; format: in vivo, L.; details: rated 3-4 weeks after treatment, 0-9 rating scale
How it was run: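 Preemergence, flooded: propagules planted at 0.5 cm depth in silt loam, water level maintained at 1.5 to 3 cm over soil, containers kept on greenhouse benches. Activity scored 0-9 by eye relative to a control plant.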

[11] = test system: ORYSAT (Rice, Tebonnet); assay: Postemergence herbicidal evaluation; format: in vivo, Oryza sativa, (L.) Tebonnet; details: postemergence
How it was run: as §1

[12] = test system: ORYSAT (Rice, Tebonnet); assay: Preemergence herbicidal evaluation; format: in vivo, Oryza sativa, (L.) Tebonnet; details: rated 4-5 weeks after treatment
[13] = test system: ORYSAT (Rice, Tebonnet); assay: Flooded paddy, post-transplant rice tolerance; format: in vivo, Oryza sativa, (L.) Tebonnet; details: flooded paddy, post-transplant rice, rated 3-4 weeks after treatment, 0-9 rating scale
How it was run: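 Ten-day-old seedlings, 2/pot, silt loam; flood kept 1.5–3 cm over soil; herbicide applied post-transplant; greenhouse; score 0–9 visual vs control.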

[14] = test system: ABUTH (Abutilon theophrasti); assay: Preemergence herbicidal evaluation; format: in vivo, Medic.; details: rated 4-5 weeks after treatment
[15] = test system: GLXMAW (Soybean, Williams); assay: Postemergence herbicidal evaluation; format: in vivo, Glycine max, (L.) Merr. cv Williams; details: postemergence
How it was run: as §1

[16] = test system: IPOHE (Ipomoea hederacea); assay: Preemergence herbicidal evaluation; format: in vivo, (L.) Jacq.; details: rated 4-5 weeks after treatment
[17] = test system: ZEAMX (Corn, Field); assay: Postemergence herbicidal evaluation; format: in vivo, Zea mays, L.; details: postemergence
How it was run: as §1

[18] = test system: GALAP (Galium aparine); assay: Preemergence herbicidal evaluation; format: in vivo; details: rated 4-5 weeks after treatment
How it was run: as §2

[19] = test system: GALAP (Galium aparine); assay: Postemergence herbicidal evaluation; format: in vivo; details: postemergence
How it was run: as §1

CCCC1COC(c2nsc3ccc(-n4c(=O)cc(C(F)(F)F)n(C)c4=O)cc23)O1 (centres unmarked) [Compound 77, 1-methyl-3-[3-(4-propyl-1,3-dioxolan-2-yl)-1,2-benzisothiazol-5-yl]-6-(trifluoromethyl)uracil]
4.5: Preemergence herbicidal rating CASOB ([5]; Rate 0.1250 kg/ha)
0.0: herbicidal rating, SAGPY ([10]; rate 0.0080 kg/ha) | herbicidal rating, SAGPY ([10]; rate 0.0320 kg/ha) | herbicidal rating, ORYSAT (rice tolerance) ([13]; rate 0.0080 kg/ha)
5.0: herbicidal rating, SAGPY ([10]; rate 0.1250 kg/ha) | Preemergence herbicidal rating ORYSAT ([12]; Rate 0.0620 kg/ha) | Preemergence herbicidal rating ORYSAT ([12]; Rate 0.1250 kg/ha)
8.5: Preemergence herbicidal rating AMBEL ([6]; Rate 0.0620 kg/ha) | GLXMAW herbicidal rating ([15]; rate 0.0620 kg/ha)
3.5: ZEAMX herbicidal rating ([17]; rate 0.0620 kg/ha)
3.0: herbicidal rating, ORYSAT (rice tolerance) ([13]; rate 0.0320 kg/ha) | Preemergence herbicidal rating IPOHE ([16]; Rate 0.0620 kg/ha) | ZEAMX herbicidal rating ([17]; rate 0.0320 kg/ha)
2.5: Preemergence herbicidal rating CASOB ([5]; Rate 0.0620 kg/ha)
6.0: CASOB herbicidal rating ([2]; rate 0.0620 kg/ha) | Preemergence herbicidal rating TRZAWR ([7]; Rate 0.0620 kg/ha) | Preemergence herbicidal rating TRZAWR ([7]; Rate 0.1250 kg/ha)
9.0: CHEAL herbicidal rating ([1]; rate 0.0320 kg/ha) | CHEAL herbicidal rating ([1]; rate 0.0620 kg/ha) | AMBEL herbicidal rating ([3]; rate 0.0320 kg/ha) | AMBEL herbicidal rating ([3]; rate 0.0620 kg/ha) | Preemergence herbicidal rating CHEAL ([4]; Rate 0.0620 kg/ha) | Preemergence herbicidal rating CHEAL ([4]; Rate 0.1250 kg/ha) | Preemergence herbicidal rating CHEAL ([4]; Rate 0.2500 kg/ha) | Preemergence herbicidal rating AMBEL ([6]; Rate 0.1250 kg/ha) | Preemergence herbicidal rating AMBEL ([6]; Rate 0.2500 kg/ha) | ABUTH herbicidal rating ([8]; rate 0.0320 kg/ha) | ABUTH herbicidal rating ([8]; rate 0.0620 kg/ha) | Preemergence herbicidal rating ABUTH ([14]; Rate 0.0620 kg/ha) | Preemergence herbicidal rating ABUTH ([14]; Rate 0.1250 kg/ha) | Preemergence herbicidal rating ABUTH ([14]; Rate 0.2500 kg/ha) | Preemergence herbicidal rating GALAP ([18]; Rate 0.2500 kg/ha)
7.0: Preemergence herbicidal rating TRZAWR ([7]; Rate 0.2500 kg/ha) | herbicidal rating, ORYSAT (rice tolerance) ([13]; rate 0.1250 kg/ha) | Preemergence herbicidal rating GALAP ([18]; Rate 0.1250 kg/ha) | GALAP herbicidal rating ([19]; rate 0.0620 kg/ha)
2.0: ORYSAT herbicidal rating ([11]; rate 0.0320 kg/ha)
4.0: CASOB herbicidal rating ([2]; rate 0.0320 kg/ha) | ECHCG herbicidal rating ([9]; rate 0.0320 kg/ha) | ECHCG herbicidal rating ([9]; rate 0.0620 kg/ha) | ORYSAT herbicidal rating ([11]; rate 0.0620 kg/ha) | Preemergence herbicidal rating IPOHE ([16]; Rate 0.1250 kg/ha) | GALAP herbicidal rating ([19]; rate 0.0320 kg/ha)
7.5: Preemergence herbicidal rating CASOB ([5]; Rate 0.2500 kg/ha) | GLXMAW herbicidal rating ([15]; rate 0.0320 kg/ha) | Preemergence herbicidal rating IPOHE ([16]; Rate 0.2500 kg/ha)
5.5: Preemergence herbicidal rating ORYSAT ([12]; Rate 0.2500 kg/ha)

Cn1c(C(F)(F)F)cc(=O)n(-c2ccc3snc(C4OCC(c5ccccc5)O4)c3c2)c1=O (centres unmarked) [Compound 78, 1-methyl-3-[3-(4-phenyl-1,3-dioxolan-2-yl)-1,2-benzisothiazol-5-yl]-6-(trifluoromethyl)uracil]
5.5: GLXMAW herbicidal rating ([15]; rate 0.0620 kg/ha)
5.0: Preemergence herbicidal rating TRZAWR ([7]; Rate 0.0620 kg/ha) | Preemergence herbicidal rating TRZAWR ([7]; Rate 0.1250 kg/ha) | GLXMAW herbicidal rating ([15]; rate 0.0320 kg/ha) | Preemergence herbicidal rating IPOHE ([16]; Rate 0.1250 kg/ha)
6.0: CASOB herbicidal rating ([2]; rate 0.0620 kg/ha) | Preemergence herbicidal rating CASOB ([5]; Rate 0.2500 kg/ha) | Preemergence herbicidal rating TRZAWR ([7]; Rate 0.2500 kg/ha) | Preemergence herbicidal rating IPOHE ([16]; Rate 0.2500 kg/ha)
2.0: Preemergence herbicidal rating CASOB ([5]; Rate 0.0620 kg/ha) | ECHCG herbicidal rating ([9]; rate 0.0320 kg/ha) | Preemergence herbicidal rating ORYSAT ([12]; Rate 0.0620 kg/ha) | Preemergence herbicidal rating IPOHE ([16]; Rate 0.0620 kg/ha)
2.5: Preemergence herbicidal rating ORYSAT ([12]; Rate 0.1250 kg/ha)
5.7: herbicidal rating, ORYSAT (rice tolerance) ([13]; rate 0.0320 kg/ha)
4.0: Preemergence herbicidal rating CASOB ([5]; Rate 0.1250 kg/ha) | ORYSAT herbicidal rating ([11]; rate 0.0320 kg/ha) | ORYSAT herbicidal rating ([11]; rate 0.0620 kg/ha) | herbicidal rating, ORYSAT (rice tolerance) ([13]; rate 0.0080 kg/ha) | GALAP herbicidal rating ([19]; rate 0.0320 kg/ha)
7.0: Preemergence herbicidal rating GALAP ([18]; Rate 0.0620 kg/ha) | Preemergence herbicidal rating GALAP ([18]; Rate 0.1250 kg/ha) | Preemergence herbicidal rating GALAP ([18]; Rate 0.2500 kg/ha) | GALAP herbicidal rating ([19]; rate 0.0620 kg/ha)
1.0: herbicidal rating, SAGPY ([10]; rate 0.0320 kg/ha)
3.5: ZEAMX herbicidal rating ([17]; rate 0.0320 kg/ha) | ZEAMX herbicidal rating ([17]; rate 0.0620 kg/ha)
0.0: herbicidal rating, SAGPY ([10]; rate 0.0080 kg/ha)
3.0: ECHCG herbicidal rating ([9]; rate 0.0620 kg/ha) | Preemergence herbicidal rating ORYSAT ([12]; Rate 0.2500 kg/ha)
9.0: CHEAL herbicidal rating ([1]; rate 0.0320 kg/ha) | CHEAL herbicidal rating ([1]; rate 0.0620 kg/ha) | CASOB herbicidal rating ([2]; rate 0.0320 kg/ha) | AMBEL herbicidal rating ([3]; rate 0.0320 kg/ha) | AMBEL herbicidal rating ([3]; rate 0.0620 kg/ha) | Preemergence herbicidal rating CHEAL ([4]; Rate 0.0620 kg/ha) | Preemergence herbicidal rating CHEAL ([4]; Rate 0.1250 kg/ha) | Preemergence herbicidal rating CHEAL ([4]; Rate 0.2500 kg/ha) | Preemergence herbicidal rating AMBEL ([6]; Rate 0.0620 kg/ha) | Preemergence herbicidal rating AMBEL ([6]; Rate 0.1250 kg/ha) | Preemergence herbicidal rating AMBEL ([6]; Rate 0.2500 kg/ha) | ABUTH herbicidal rating ([8]; rate 0.0320 kg/ha) | ABUTH herbicidal rating ([8]; rate 0.0620 kg/ha) | herbicidal rating, SAGPY ([10]; rate 0.1250 kg/ha) | Preemergence herbicidal rating ABUTH ([14]; Rate 0.0620 kg/ha) | Preemergence herbicidal rating ABUTH ([14]; Rate 0.1250 kg/ha) | Preemergence herbicidal rating ABUTH ([14]; Rate 0.2500 kg/ha)
8.5: herbicidal rating, ORYSAT (rice tolerance) ([13]; rate 0.1250 kg/ha)
